Results published in patent US20110076349A1 (priority 2008, published 2011).
Where a name gives a salt, the structure may show the parent alone.

What was measured:
Format in all cases: in vivo, mouse
male C57BL/6N mice [1] = assay: Forced swimming treatment and amount of spontaneous activity in dark period (fatigue-relieving effects); conditions: dark period after 30 minutes of forced swimming; compared with FS-Vehicle group
Experimental: An experiment for determining the fatigue-improving effects (action) was conducted using a forced swimming test for mice and a system for measuring the amount of spontaneous activity. Sixty eight (68) male C57BL/6N mice that had experienced no experiment were bred in an animal room with a constant temperature and humidity for which a 12-12-hour light-dark cycle had been set. Mice were sufficiently acclimatized to breeding environment and then used as subject animals. At the start of the experiment, mice were 10-12-week old and the average body weight was 22.8 g (SD =1.28). The subject animals were divided into seven groups so that the groups were almost the same in terms of average body weights and average ages in weeks. These groups were designated an FS-Akino group (n=11), an FS-Vehicle group (n=10), a noFS-Vehicle group (n=9), an FS-Dia group (n=9), an FS-Caf group (n=9), an FS-Imi group (n=11), and an FS-SSRI group (n=9).
A cylindrical water tank (with the bottom surface having a diameter of 18 cm and a height of 29 cm) placed in an experimental chamber capable of achieving sound proof and light shielding was filled with water at 24±1° C. to a depth of 15 cm. At 7 hours before the start of a dark period, subject mice under FS conditions were subjected to 30 minutes of forced swimming treatment in the tank. Specifically, subject mice were forced to swim under conditions in which they could not escape. Subject mice of the control noFS-Cnt group were left to stand within the same type of empty water tank for 30 minutes.
After 30 minutes of forced swimming treatment, Akino (the water soluble ingredient extracted from Hemerocallis fulva var. sempervirens), diazepam (Dia, 2.5 mg/kg), caffeine (Caf, 15 mg/kg), imipramine (Imi, 30 mg/kg), SSRI (fluvoxamine maleate, 25 mg/kg), or Vehicle (distilled water), which is an ingredient, corresponding to the latter half of each group name, were specifically administered to each subject mouse. Akino and distilled water were orally administered using a stomach tube, and diazepam, caffeine, imipramine, and SSRI were injected intraperitoneally. The dose was always 10 ml of solution per kg mouse body weight.
After administration of these drugs, subject mice were placed in acrylic cages (20 cm long×30 cm wide×12 cm high). The amount of spontaneous activity (in the dark period that began at 6 hours after administration) was continuously measured for 12 hours. The breeding cages used herein were sterilized in advance. All floor mats, feeding stuffs, water supply bottles, and the like used herein were newly prepared. The amount of spontaneous activity was measured using a system for measuring the amount of exercise of experimental animals (Muromachi Kikai Co., Ltd.) using Super Mex Sensor and dedicated software (CompACT AMS ver.3).

mice [2] = assay: Deep body temperature measurement, comparison with other test substances (FIG. 18); conditions: same concentration for all test substances
mice [3] = assay: Comparison of sedative effects with other test substances (FIG. 3); conditions: same dose, 0.8 g/kg, p.o.
male C57BL/6N mice [4] = assay: Open space swimming treatment and water maze learning (antidepressant-like effects); conditions: phase 2 after open space swimming; 25 mg/kg intraperitoneal
Source text: Fifty (50) male C57BL/6N mice that had experienced no experiment were bred in an animal room with a constant temperature and humidity for which a 12-12-hour light-dark cycle had been set. Mice were sufficiently acclimatized to breeding environment and then used as subject animals. At the start of the experiment, mice were 10-14-week old and the average body weight was 23.7 g (SD=3.21). The subject animals were divided into four groups each consisting of 12 or 13 mice so that the groups were almost the same average body weights and average ages in weeks. These groups were designated an OS-Akino group, an OS-SSRI group, an OS-Vehicle group, and a noOS-Vehicle group, respectively. An experimental apparatus was a circular pool coated white having a diameter of 110 cm and a height of 40 cm. The pool was filled with water to the depth of 22 cm. Titanium oxide was added to make water cloudy. The water temperature was maintained at 24° C.±1 ° C.
The experiment was composed of two phases. In phase 1, subject mice of the 3 groups under OS conditions were subjected to open space swimming treatment (OS) for 5 straight days. Specifically, subject mice were released into the pool from a wall once a day and then caused to swim for 5 minutes. […] Specifically, 5 times a day, mice were released into the pool and then the time for the mice to reach the escape platform (escape latency) was measured. […]

SMILES | amount of spontaneous activity (male C57BL/6N mice [1]) | rectal temperature (deep body temperature) (mice [2]) | sedative effects (mice [3]) | water maze learning (male C57BL/6N mice [4])
Cn1c(=O)c2c(ncn2C)n(C)c1=O [Caf, caffeine] | equivalent to that of the FS-Vehicle group | – | – | –
CN1C(=O)CN=C(c2ccccc2)c2cc(Cl)ccc21 [Dia, diazepam] | higher than that of the FS-Vehicle group | – | – | –
NCCCC(=O)O [GABA, γ-aminobutyric acid] | – | lowered the deep body temperature, but the rate of decrease was lower | sedative effects | –
CN(C)CCCN1c2ccccc2CCc2ccccc21 [Imi, imipramine] | equivalent to that of the FS-Vehicle group | – | – | –
COCCCC/C(=N\OCCN)c1ccc(C(F)(F)F)cc1 [SSRI, fluvoxamine maleate] | equivalent to that of the FS-Vehicle group | – | – | good learning
NCC(=O)O [glycine] | – | lowered the deep body temperature, but the rate of decrease was lower | sedative effects | –
CCNC(=O)CC[C@H](N)C(=O)O [teanin] | – | lowered the deep body temperature, but the rate of decrease was lower | sedative effects | –
